This is an account of results in US20220257775A1 (GLYCOMIMETICS, INC., priority 2019, published 2022).

As a reminder, the Kd is the free concentration of one partner at which half of the binding sites on the other are occupied at equilibrium, for simple one-to-one binding.

The target in the assay is T1, recombinant human E-selectin/CD63E Fc Chimera (Homo sapiens, UniProt P16581).
T1 construct: Fc (human IgG Fc fusion partner); purchased R & D systems
T1 sequence (P16581 with tags, fused parts or gaps limits assumed): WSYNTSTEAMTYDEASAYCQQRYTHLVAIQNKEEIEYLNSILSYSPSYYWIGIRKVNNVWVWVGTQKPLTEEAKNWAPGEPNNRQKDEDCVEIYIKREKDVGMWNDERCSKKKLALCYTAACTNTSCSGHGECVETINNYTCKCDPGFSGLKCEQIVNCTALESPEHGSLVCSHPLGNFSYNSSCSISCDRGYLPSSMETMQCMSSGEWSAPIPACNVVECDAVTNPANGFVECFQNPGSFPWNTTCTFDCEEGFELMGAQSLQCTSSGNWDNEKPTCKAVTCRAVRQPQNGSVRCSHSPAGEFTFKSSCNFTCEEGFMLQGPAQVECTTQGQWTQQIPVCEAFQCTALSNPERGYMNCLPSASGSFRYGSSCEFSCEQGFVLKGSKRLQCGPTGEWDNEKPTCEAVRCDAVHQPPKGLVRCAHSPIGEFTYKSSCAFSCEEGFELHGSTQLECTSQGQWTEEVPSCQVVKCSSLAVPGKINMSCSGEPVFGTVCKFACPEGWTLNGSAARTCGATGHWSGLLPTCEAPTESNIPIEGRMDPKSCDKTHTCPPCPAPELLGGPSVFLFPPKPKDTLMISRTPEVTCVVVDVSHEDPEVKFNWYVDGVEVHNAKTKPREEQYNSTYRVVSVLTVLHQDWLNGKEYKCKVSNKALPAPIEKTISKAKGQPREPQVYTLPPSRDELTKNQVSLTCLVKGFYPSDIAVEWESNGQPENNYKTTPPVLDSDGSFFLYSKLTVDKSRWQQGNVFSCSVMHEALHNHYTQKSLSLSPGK
Put plainly: E-Selectin Activity - Analysis by SPR. The class given is binding. The conditions noted are these: Biacore X100, E-selectin captured on anti-human IgG (Fc) chip. The procedure: Surface Plasmon Resonance (SPR) measurements were performed on a Biacore X100 instrument (GE Healthcare). A CM5 sensor chip (GE Healthcare) was used for the interaction between E-selectin and GMI compound. Anti-human IgG (Fc) antibody (GE Healthcare) was immobilized onto the chip by amine coupling according to the manufacturer's instructions. In brief, after a 7-min injection (flow rate of 5 μl/min) of 1:1 mixture of N-ethyl-N′-(3-dimethylaminopropyl) carbodiimide hydrochloride and N-hydroxysuccinimide, anti-human IgG (Fc) antibody (25 μg/ml in 10 mM sodium acetate buffer, pH 5.0) was injected using a 6-min injection at 5 μl/min. Remaining activated groups were blocked by injecting 1 M ethanolamine/HCl, pH 8.5. The recombinant human E-selectin/CD63E Fc Chimera (50 μg/ml) (R & D systems) was injected into the experimental cell until 6000-7000 RU was captured onto the antibody surface. No recombinant human E-selectin/CD63E was injected into the control cell. Increasing concentrations of GMI compound samples were injected at 30 μl/min into both flow cells and all sensorgrams were recorded against the control. Regeneration of the anti-human IgG (Fc) surface was achieved by injecting 3M magnesium chloride, followed by 50 mM sodium hydroxide. Data were analyzed using Biacore X100 evaluation/BIA evaluation 4.1.1 software (GE Healthcare) and Graphad prism 6 software.
A general note: SPR reads the build-up and loss of mass on a sensor chip optically.
Regarding `CC[C@H]1C[C@@H](C(=O)NCCNC(=O)CCOCCOCCOCCOCCC(=O)NCCNC(=O)[C@@H]2C[C@H](CC)[C@@H](O[C@@H]3O[C@@H](C)[C@@H](O)[C@@H](O)[C@@H]3O)[C@H](O[C@@H]3O[C@H](CO)[C@H](O)[C@H](O[C@@H](CC4CCCCC4)C(=O)N4CCC4)[C@H]3NC(C)=O)C2)C[C@@H](O[C@@H]2O[C@H](CO)[C@H](O)[C@H](O[C@@H](CC3CCCCC3)C(=O)N3CCC3)[C@H]2NC(C)=O)[C@@H]1O[C@@H]1O[C@@H](C)[C@@H](O)[C@@H](O)[C@@H]1O` [Compound 23], the Kd worked out at 2.8 nM.
Consider `CC[C@H]1C[C@@H](C(=O)NCCNC(=O)CCOCCOCCOCCOCCOCCOCCC(=O)NCCNC(=O)[C@@H]2C[C@H](CC)[C@@H](O[C@@H]3O[C@@H](C)[C@@H](O)[C@@H](O)[C@@H]3O)[C@H](O[C@@H]3O[C@H](CO)[C@H](O)[C@H](O[C@@H](CC4CCCCC4)C(=O)N4CCC4)[C@H]3NC(C)=O)C2)C[C@@H](O[C@@H]2O[C@H](CO)[C@H](O)[C@H](O[C@@H](CC3CCCCC3)C(=O)N3CCC3)[C@H]2NC(C)=O)[C@@H]1O[C@@H]1O[C@@H](C)[C@@H](O)[C@@H](O)[C@@H]1O` [Compound 24], for which the Kd worked out at 2.4 nM.
Consider `CC[C@H]1C[C@@H](C(=O)NCCNC(=O)CCOCCOCCC(=O)NCCNC(=O)[C@@H]2C[C@H](CC)[C@@H](O[C@@H]3O[C@@H](C)[C@@H](O)[C@@H](O)[C@@H]3O)[C@H](O[C@@H]3O[C@H](CO)[C@H](O)[C@H](O[C@@H](CC4CCCCC4)C(=O)N4CCC4)[C@H]3NC(C)=O)C2)C[C@@H](O[C@@H]2O[C@H](CO)[C@H](O)[C@H](O[C@@H](CC3CCCCC3)C(=O)N3CCC3)[C@H]2NC(C)=O)[C@@H]1O[C@@H]1O[C@@H](C)[C@@H](O)[C@@H](O)[C@@H]1O` [Compound 25], for which the Kd is 3 nM.
In the case of `CC[C@H]1C[C@@H](C(=O)NCCNC(=O)c2cn(CCOCCOCCn3cc(C(=O)NCCNC(=O)[C@@H]4C[C@H](CC)[C@@H](O[C@@H]5O[C@@H](C)[C@@H](O)[C@@H](O)[C@@H]5O)[C@H](O[C@@H]5O[C@H](CO)[C@H](O)[C@H](O[C@@H](CC6CCCCC6)C(=O)O)[C@H]5NC(C)=O)C4)nn3)nn2)C[C@@H](O[C@@H]2O[C@H](CO)[C@H](O)[C@H](O[C@@H](CC3CCCCC3)C(=O)O)[C@H]2NC(C)=O)[C@@H]1O[C@@H]1O[C@@H](C)[C@@H](O)[C@@H](O)[C@@H]1O` [Compound 28] it was 3.2 nM; in that of `CCC1CC(C(=O)NCCNC(=O)c2cn(CCOCCOCCOCCn3cc(C(=O)NCCNC(=O)C4CC(CC)C(OC5OC(C)C(O)C(O)C5O)C(OC5OC(CO)C(O)C(OC(CC6CCCCC6)C(=O)N6CCC6)C5NC(C)=O)C4)nn3)nn2)CC(OC2OC(CO)C(O)C(OC(CC3CCCCC3)C(=O)N3CCC3)C2NC(C)=O)C1OC1OC(C)C(O)C(O)C1O` (stereo not shown) [Compound 29], 3.2 nM; in that of `CC[C@H]1C[C@@H](C(=O)NCCNC(=O)Cn2cc(C(=O)NCCNC(=O)[C@@H]3C[C@H](CC)[C@@H](O[C@@H]4O[C@@H](C)[C@@H](O)[C@@H](O)[C@@H]4O)[C@H](O[C@@H]4O[C@H](CO)[C@H](O)[C@H](O[C@@H](CC5CCCCC5)C(=O)O)[C@H]4NC(C)=O)C3)nn2)C[C@@H](O[C@@H]2O[C@H](CO)[C@H](O)[C@H](O[C@@H](CC3CCCCC3)C(=O)O)[C@H]2NC(C)=O)[C@@H]1O[C@@H]1O[C@@H](C)[C@@H](O)[C@@H](O)[C@@H]1O` [Compound 31], 3.3 nM.
Take `CC[C@H]1C[C@@H](C(=O)NCCNC(=O)NCCNC(=O)[C@@H]2C[C@H](CC)[C@@H](O[C@@H]3O[C@@H](C)[C@@H](O)[C@@H](O)[C@@H]3O)[C@H](O[C@@H]3O[C@H](CO)[C@H](O)[C@H](O[C@@H](CC4CCCCC4)C(=O)O)[C@H]3NC(C)=O)C2)C[C@@H](O[C@@H]2O[C@H](CO)[C@H](O)[C@H](O[C@@H](CC3CCCCC3)C(=O)O)[C@H]2NC(C)=O)[C@@H]1O[C@@H]1O[C@@H](C)[C@@H](O)[C@@H](O)[C@@H]1O` [Compound 32]: the Kd is 8.8 nM.
In the case of `CCC1CC(C(=O)NCCNC(=O)c2cn(CCOCCC(=O)NCCCC[C@H](NC(=O)CCOCCn3cc(C(=O)NCCNC(=O)C4CC(CC)[C@@H](O[C@@H]5OC(C)[C@@H](O)[C@H](O)C5O)[C@H](O[C@@H]5O[C@@H](CO)[C@H](O)C(O[C@@H](CC6CCCCC6)C(=O)O)C5NC(C)=O)C4)nn3)C(=O)OCc3ccccc3)nn2)C[C@@H](O[C@@H]2O[C@@H](CO)[C@H](O)C(O[C@@H](CC3CCCCC3)C(=O)O)C2NC(C)=O)[C@@H]1O[C@@H]1OC(C)[C@@H](O)[C@H](O)C1O` (stereo partly shown) [Compound 37] it was 3.9 nM.
Take `CCC1CC(C(=O)NCCNC(=O)c2cn(CCOCCC(=O)NCCCC[C@H](NC(=O)CCOCCn3cc(C(=O)NCCNC(=O)C4CC(CC)[C@@H](O[C@@H]5OC(C)[C@@H](O)[C@H](O)C5O)[C@H](O[C@@H]5O[C@@H](CO)[C@H](O)C(O[C@@H](CC6CCCCC6)C(=O)O)C5NC(C)=O)C4)nn3)C(=O)O)nn2)C[C@@H](O[C@@H]2O[C@@H](CO)[C@H](O)C(O[C@@H](CC3CCCCC3)C(=O)O)C2NC(C)=O)[C@@H]1O[C@@H]1OC(C)[C@@H](O)[C@H](O)C1O` (stereo partly shown) [Compound 38]: the Kd was found to be 6.4 nM.
For the molecule `CCC1CC(C(=O)NCCNC(=O)CCC(=O)NCCN(CCNC(=O)CCC(=O)NCCNC(=O)C2CC(CC)C(OC3OC(C)C(O)C(O)C3O)C(OC3OC(CO)C(O)C(OC(CC4CCCCC4)C(=O)O)C3NC(C)=O)C2)CCNC(=O)CCC(=O)NCCNC(=O)C2CC(CC)C(OC3OC(C)C(O)C(O)C3O)C(OC3OC(CO)C(O)C(OC(CC4CCCCC4)C(=O)O)C3NC(C)=O)C2)CC(OC2OC(CO)C(O)C(OC(CC3CCCCC3)C(=O)O)C2NC(C)=O)C1OC1OC(C)C(O)C(O)C1O` (stereo not shown) [Compound 42], the Kd amounted to 1.5 nM.
